Tests used:
[1] = system: MM.1S; assay: Tumor cell viability, CCK-8 assay, MM.1S; type: cell-based; conditions: MM.1S (human multiple myeloma); compound treatment 1uM; 5 days
Procedure: (§1) To examine whether the compounds having CRBN-binding activity according to the present invention exert tumor cell apoptosis effects, the assay was conducted using various human cancer cell lines, including human multiple myeloma cell lines (MM.1S and MM.1R-LR), a human breast cancer cell line (MDA-MB-231), a human lung cancer cell line (A549), a human rhabdomyosarcoma cell line (RD), and a human lymphoma cell line (Jeko-1).
(§2) The MM.1S, MM.1R-LR, MDA-MB-231, A549, RD, and Jeko-1 cell lines were obtained from the American Type Culture Collection (ATCC, Manassas, VA, USA) and cultured in RPMI 1640 medium (Corning, MD, USA) or DMEM (Corning, MD, USA) supplemented with 10% fetal bovine serum (FBS) (Corning, MD, USA), 100 U/mL penicillin (Corning, MD, USA), and 100 µg/mL streptomycin (Corning, MD, USA) at 37°C in a 5% CO2 incubator for 24 hours. The cells were seeded at a density of 1 × 10^4 cells/well in 96-well plates and incubated for 24 hours. After incubation, the test compounds dissolved in dimethyl sulfoxide (DMSO, CAS No.: 67-68-5) were serially diluted to a final concentration of 10 µM and applied to the cells. Following an additional incubation for 2 to 5 days, the analysis was performed using a CCK-8 assay kit (Dojindo, Japan) according to the manufacturer's instructions.

[2] = system: RD; assay: Tumor cell viability, CCK-8 assay, RD; type: cell-based; conditions: RD (human rhabdomyosarcoma); compound treatment 1uM; 3 days
Procedure: as §1, §2

[3] = system: Jeko-1; assay: Tumor cell viability, CCK-8 assay, Jeko-1; type: cell-based; conditions: Jeko-1 (human lymphoma); compound treatment 1uM; 3 days
Procedure: as §1, §2

[4] = system: MM.1R-LR; assay: Tumor cell viability, CCK-8 assay, MM.1R-LR; type: cell-based; conditions: MM.1R-LR (drug-resistant human multiple myeloma); compound treatment 1uM; 5 days
Procedure: as §1, §2

[5] = system: A549; assay: Tumor cell viability, CCK-8 assay, A549; type: cell-based; conditions: A549 (human lung cancer); compound treatment 1uM; 2 days
Procedure: as §1, §2

[6] = system: MDA-MB-231; assay: Tumor cell viability, CCK-8 assay, MDA-MB-231; type: cell-based; conditions: MDA-MB-231 (human breast cancer); compound treatment 1uM; 2 days
Procedure: as §1, §2

[7] = target: cereblon (CRBN) (Homo sapiens, UniProt Q96SW2); assay: In vitro CRBN binding assay (AlphaScreen, competitive inhibition of the PROTAC assay); conditions: Table 1; AlphaScreen, PROTAC Optimization Kit for BET Bromodomain-Cereblon Binding; read-out: Alpha IC50

| Structure (SMILES) | Cell viability (% of control) [1] | Cell viability (% of control) [2] | Cell viability (% of control) [3] | Cell viability (% of control) [4] | Cell viability (% of control) [5] | Cell viability (% of control) [6] | IC50 [7] [µM] |
| --- | --- | --- | --- | --- | --- | --- | --- |
| CCCCCCCc1ccc(C(=O)Nc2cccc(S(=O)(=O)Nc3cccc(C4CCC(=O)NC4=O)c3)c2)cc1 (stereo not drawn) [AEV40204, N-(3-(N-(3-(2,6-dioxopiperidin-3-yl)phenyl)sulfamoyl)phenyl)-4-heptylbenzamide] | 3.3 % of control | 50.8 % of control | 11.6 % of control | 49.4 % of control | 33.6 % of control | 40.4 % of control | 0.44 |
| CCCCCCCCc1ccc(C(=O)Nc2cccc(S(=O)(=O)Nc3cccc(C4CCC(=O)NC4=O)c3)c2)cc1 (stereo not drawn) [AEV40264, N-(3-(N-(3-(2,6-dioxopiperidin-3-yl)phenyl)sulfamoyl)phenyl)-4-octylbenzamide] | 13.3 % of control | 67.9 % of control | 5.8 % of control | 79.8 % of control | 61.8 % of control | 46.3 % of control | 0.32 |
| CCCCCCc1ccc(C(=O)Nc2cccc(S(=O)(=O)Nc3cccc(C4CCC(=O)NC4=O)c3)c2)cc1 (stereo not drawn) [AEV41083, N-(3-(N-(3-(2,6-dioxopiperidin-3-yl)phenyl)sulfamoyl)phenyl)-4-hexylbenzamide] | 17.8 % of control | 31.4 % of control | 9.7 % of control | 54.7 % of control | 29.5 % of control | 35.5 % of control | 0.91 |
| O=C1CCC(c2cccc(NS(=O)(=O)c3cccc(NC(=O)c4ccc(CCCCCCCl)cc4)c3)c2)C(=O)N1 (stereo not drawn) [AEV41048, 4-(6-chlorohexyl)-N-(3-(N-(3-(2,6-dioxopiperidin-3-yl)phenyl)sulfamoyl)phenyl)benzamide] | 10.8 % of control | 54.0 % of control | 13.0 % of control | 51.5 % of control | 47.0 % of control | 45.6 % of control | 2.59 |
| O=C1CCC(c2cccc(NS(=O)(=O)c3cccc(NC(=O)c4ccc(CCCCCCl)cc4)c3)c2)C(=O)N1 (stereo not drawn) [AEV41047, 4-(5-chloropentyl)-N-(3-(N-(3-(2,6-dioxopiperidin-3-yl)phenyl)sulfamoyl)phenyl)benzamide] | 14.9 % of control | 20.5 % of control | 15.7 % of control | 56.9 % of control | 32.2 % of control | 28.2 % of control | 1.88 |
| O=C1CCC(c2cccc(NS(=O)(=O)c3cccc(NC(=O)c4ccc(CCCCCl)cc4)c3)c2)C(=O)N1 (stereo not drawn) [AEV41005, 4-(4-chlorobutyl)-N-(3-(N-(3-(2,6-dioxopiperidin-3-yl)phenyl)sulfamoyl)phenyl)benzamide] | 10.7 % of control | 28.7 % of control | 4.1 % of control | 58.2 % of control | 36.8 % of control | 42.2 % of control | 1.2 |
